{"source": "PubChem BioAssay AID256", "about": "(DTP/NCI, 2004)", "test_system": "CD2F1 mice, L1210 leukemia ip, survival T/C", "assay": "NCI In Vivo Anticancer Drug Screen. Data for tumor model L1210 Leukemia (intraperitoneal) in CD2F1 (CDF1) mice", "details": "endpoint: mean survival time, higher = longer survival", "method_in_brief": "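In this screen, transplantable tumors were grown in mice given either the compound or its vehicle. Results were expressed as the treated measurement relative to the control measurement.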", "note": "Values joined by “and” are separate entries in the source; they are usually repeats but may differ in a detail not shown here. Identical values can stand only once. Toxic doses and inconclusive results are not listed."}
{"smiles": "CN(C)/N=N/c1nc[nH]c1C(N)=O", "values": [{"measurement": "T/C", "setting": "dose: 1.56 mg/kg/injection, schedule: Q03HX024 (ip), vehicle: steriod suspending solution", "result": "105 % of control"}, {"measurement": "T/C", "setting": "dose: 1.56 mg/kg/injection, schedule: Q03HX024 (oral), vehicle: steriod suspending solution", "result": "105 % of control"}, {"measurement": "T/C", "setting": "dose: 2.9 mg/kg/injection, schedule: Q01DX009 (ip), vehicle: Klucel (hydroxypropylcellulose) (HPC)", "result": "103 % of control"}, {"measurement": "T/C", "setting": "dose: 3.12 mg/kg/injection, schedule: Q03HX024 (ip), vehicle: steriod suspending solution", "result": "115 % of control"}, {"measurement": "T/C", "setting": "dose: 3.12 mg/kg/injection, schedule: Q03HX024 (oral), vehicle: steriod suspending solution", "result": "107 % of control"}, {"measurement": "T/C", "setting": "dose: 5.7 mg/kg/injection, schedule: Q01DX009 (ip), vehicle: Klucel (hydroxypropylcellulose) (HPC)", "result": "108 % of control"}, {"measurement": "T/C", "setting": "dose: 6.25 mg/kg/injection, schedule: Q03HX016 (ip), vehicle: steriod suspending solution", "result": "107 % of control"}, {"measurement": "T/C", "setting": "dose: 6.25 mg/kg/injection, schedule: Q03HX016 (oral), vehicle: steriod suspending solution", "result": "110 % of control"}, {"measurement": "T/C", "setting": "dose: 6.25 mg/kg/injection, schedule: Q03HX024 (oral), vehicle: steriod suspending solution", "result": "104 % of control"}, {"measurement": "T/C", "setting": "dose: 11.4 mg/kg/injection, schedule: Q01DX009 (ip), vehicle: Klucel (hydroxypropylcellulose) (HPC)", "result": "104 % of control and 105 % of control"}, {"measurement": "T/C", "setting": "dose: 12.5 mg/kg/injection, schedule: Q01DX001 (ip), vehicle: distilled water + Tween-80", "result": "104 % of control and 105 % of control"}, {"measurement": "T/C", "setting": "dose: 12.5 mg/kg/injection, schedule: Q03HX016 (ip), vehicle: steriod suspending solution", "result": "109 % of control"}, {"measurement": "T/C", "setting": "dose: 12.5 mg/kg/injection, schedule: Q03HX016 (oral), vehicle: steriod suspending solution", "result": "109 % of control"}, {"measurement": "T/C", "setting": "dose: 12.5 mg/kg/injection, schedule: Q03HX024 (ip), vehicle: steriod suspending solution", "result": "116 % of control"}, {"measurement": "T/C", "setting": "dose: 22.7 mg/kg/injection, schedule: Q01DX009 (ip), vehicle: Klucel (hydroxypropylcellulose) (HPC)", "result": "115 % of control and 110 % of control"}, {"measurement": "T/C", "setting": "dose: 25.0 mg/kg/injection, schedule: Q01DX001 (ip), vehicle: distilled water + Tween-80", "result": "103 % of control and 104 % of control"}, {"measurement": "T/C", "setting": "dose: 25.0 mg/kg/injection, schedule: Q01DX009 (ip), vehicle: DMSO", "result": "110 % of control"}, {"measurement": "T/C", "setting": "dose: 25.0 mg/kg/injection, schedule: Q01DX009 (ip), vehicle: saline", "result": "117 % of control"}, {"measurement": "T/C", "setting": "dose: 25.0 mg/kg/injection, schedule: Q01DX009 (ip), vehicle: water", "result": "113 % of control"}, {"measurement": "T/C", "setting": "dose: 25.0 mg/kg/injection, schedule: Q03HX016 (oral), vehicle: steriod suspending solution", "result": "110 % of control"}, {"measurement": "T/C", "setting": "dose: 25.0 mg/kg/injection, schedule: Q03HX024 (ip), vehicle: steriod suspending solution", "result": "118 % of control"}, {"measurement": "T/C", "setting": "dose: 25.0 mg/kg/injection, schedule: Q03HX024 (oral), vehicle: steriod suspending solution", "result": "122 % of control"}, {"measurement": "T/C", "setting": "dose: 25.0 mg/kg/injection, schedule: Q04DX003 (ip), vehicle: other", "result": "110 % of control"}, {"measurement": "T/C", "setting": "dose: 25.0 mg/kg/injection, schedule: Q04DX003 (ip), vehicle: water", "result": "105 % of control"}, {"measurement": "T/C", "setting": "dose: 45.5 mg/kg/injection, schedule: Q01DX009 (ip), vehicle: Klucel (hydroxypropylcellulose) (HPC)", "result": "115 % of control and 123 % of control"}, {"measurement": "T/C", "setting": "dose: 50.0 mg/kg/injection, schedule: Q01DX001 (ip), vehicle: distilled water + Tween-80", "result": "113 % of control and 106 % of control"}, {"measurement": "T/C", "setting": "dose: 50.0 mg/kg/injection, schedule: Q01DX005 (ip), vehicle: other", "result": "117 % of control"}, {"measurement": "T/C", "setting": "dose: 50.0 mg/kg/injection, schedule: Q01DX009 (ip), vehicle: DMSO", "result": "120 % of control"}, {"measurement": "T/C", "setting": "dose: 50.0 mg/kg/injection, schedule: Q01DX009 (ip), vehicle: saline", "result": "116 % of control"}, {"measurement": "T/C", "setting": "dose: 50.0 mg/kg/injection, schedule: Q01DX009 (ip), vehicle: steriod suspending solution", "result": "115 % of control"}, {"measurement": "T/C", "setting": "dose: 50.0 mg/kg/injection, schedule: Q03DX003 (ip), vehicle: saline", "result": "110 % of control"}, {"measurement": "T/C", "setting": "dose: 50.0 mg/kg/injection, schedule: Q03HX016 (ip), vehicle: steriod suspending solution", "result": "115 % of control"}, {"measurement": "T/C", "setting": "dose: 50.0 mg/kg/injection, schedule: Q03HX016 (oral), vehicle: steriod suspending solution", "result": "105 % of control"}, {"measurement": "T/C", "setting": "dose: 50.0 mg/kg/injection, schedule: Q04DX003 (ip), vehicle: Klucel (hydroxypropylcellulose) (HPC)", "result": "103 % of control"}, {"measurement": "T/C", "setting": "dose: 50.0 mg/kg/injection, schedule: Q04DX003 (ip), vehicle: other", "result": "114 % of control"}, {"measurement": "T/C", "setting": "dose: 50.0 mg/kg/injection, schedule: Q04DX003 (ip), vehicle: saline", "result": "105 % of control"}, {"measurement": "T/C", "setting": "dose: 50.0 mg/kg/injection, schedule: Q04DX003 (ip), vehicle: water", "result": "117 % of control"}, {"measurement": "T/C", "setting": "dose: 60.0 mg/kg/injection, schedule: Q04DX003 (ip), vehicle: saline", "result": "88 % of control and 108 % of control"}, {"measurement": "T/C", "setting": "dose: 67.0 mg/kg/injection, schedule: Q01DX009 (ip), vehicle: carboxymethylcellulose (CMC)", "result": "160 % of control"}, {"measurement": "T/C", "setting": "dose: 80.0 mg/kg/injection, schedule: Q04DX003 (ip), vehicle: saline", "result": "92 % of control and 106 % of control"}, {"measurement": "T/C", "setting": "dose: 91.0 mg/kg/injection, schedule: Q01DX009 (ip), vehicle: Klucel (hydroxypropylcellulose) (HPC)", "result": "121 % of control"}, {"measurement": "T/C", "setting": "dose: 97.0 mg/kg/injection, schedule: Q01DX009 (ip), vehicle: carboxymethylcellulose (CMC)", "result": "154 % of control"}, {"measurement": "T/C", "setting": "dose: 100.0 mg/kg/injection, schedule: Q01DX001 (ip), vehicle: distilled water + Tween-80", "result": "114 % of control and 117 % of control"}, {"measurement": "T/C", "setting": "dose: 100.0 mg/kg/injection, schedule: Q01DX009 (ip), vehicle: carboxymethylcellulose (CMC)", "result": "160 % of control"}]}
